Test results as given in patent EP4076430B1, “A METHOD OF TREATING NONALCOHOLIC STEATOHEPATITIS” (Vector Vitale IP LLC, priority 2019, dated 2021).
Several values for one entry are separate records, joined by “and”; a condition that tells them apart may be missing. Equal entries are not always repeated. Entries after “also recorded” stand apart in the source; their conditions may differ.

Tests used:
insulin = assay: Serum insulin level after intraperitoneal administration (ELISA); format: in vivo; conditions: intact rats, 3750 µg of zinc per 1 kg, 7 injections every other day
Protocol: The current dose was calculated by zinc.
The optical density was measured at 492 nm.

Glucose tolerance test = format: in vivo, rats; parameters: Glucose, 0 min (1 h after effector administration): unit not given here; conditions: for glucose levels in the glucose tolerance test compared with the control group: 5 mg/kg in 2 ml, glucose 3 g/kg
Description: 5 animals were used within the same experimental group.

[1] = Accumulation of metals in liver and kidney tissues after intraperitoneal administration; format: in vivo, rats; conditions: day 1 and day 7 after discontinuation of the substances
Protocol: The total kidney, liver and muscle homogenates were prepared as follows. Organ excision and homogenization were carried out at a temperature of 1-4°C. Homogenization of tissues was carried out in 50 mM Tris-HCl buffer (pH 7.4) which contained 140 mM NaCl, 1 mM EDTA. The volume of the used buffer in ml was 5 times larger than the mass of isolated organs in grams. The isolated liver was perfused with chilled saline (0.9% NaCl) via the portal vein using a syringe. The minced liver was transferred to a homogenizer with a finely ground Teflon pestle and homogenized in chilled buffer. An isolated pair of kidneys was perfused with chilled saline, released from adipose tissue and minced with scissors. The minced tissue was transferred to a homogenizer with a finely ground Teflon pestle and homogenized in chilled buffer. The total kidney and liver homogenates were centrifuged at 600 g for 15 minutes. The liquid was decanted after the mince settled down and was centrifuged again at 15,000 g for 15 minutes. These two procedures allowed us to get rid of nuclear and mitochondrial debris. Aliquots of the prepared homogenates were frozen in nitrogen (Rybalchenko V.K., Koganov M.M. Structure and function of membrane 1988. - 312 pp).

[2] = Serum albumin in obesity model; format: in vivo, rats; conditions: obese animals treated
Description: (§1) Test kit // Pliva-Lachema Diagnostika. - 2008.

pancreas = assay: Morpho-functional analysis of pancreatic tissue in obesity model; format: in vivo, rats
Description: After fixation, the pieces were rinsed in tap water. Then the material was dehydrated.
Dried preparations were stained with hematoxylin and eosin.

[3] = Serum glucose concentration in obesity model; format: in vivo, rats; conditions: intragastrically every third day
Description: The glucose concentration was expressed in mmol/L.

islets of Langerhans = assay: Area of islets of Langerhans after intraperitoneal administration (microscopy); format: in vivo; conditions: intact rats, 3750 µg of zinc per 1 kg, day 7 after the last administration
Protocol: (§6) Animals are placed in cages, 4 per cage, with free access to food/water. […] Administration is performed every other day, in the amount of 7 injections per animal (intraperitoneal method of drug administration). The dose of the drug injected to each animal was calculated on the basis of the ratio: 3750 µg of zinc per 1 kg of animal body weight. After the last injection, a half of the animals are maintained on hunger (for 12 hours) with free access to water. Upon expiration of this time period, the animals are taken out of the experiment. The second half of the animals continues to have free access to food/water for a further 7 days. On day 6 after the last injection, the animals are maintained on hunger (for 12 hours) with free access to water. Upon expiration of this time period, the animals are taken out of the experiment.

[4] = test system: products of oxidative modification of proteins; assay: Serum levels of products of oxidative modification of proteins in obesity model; format: in vivo, rats; conditions: DIO+zinc: high-fat diet, intragastrically every third day
Protocol: (§2) Animal serum was prepared from whole blood. […] Samples were centrifuged for 15 min at 2500 g.
Proteins were precipitated by adding a 20% TCA solution.

[5] = test system: peripheral serotonergic system (duodenum); assay: Indicators of the peripheral serotonergic system in duodenal homogenate, obesity model; format: in vivo, rats; conditions: intragastrically every third day
Description: (§3) The tissue : buffer ratio was 1:10.
(§4) The samples were reprecipitated by centrifugation. […]
(§5) The supernatant was used in further studies.

[6] = Anthropometric values, amount and calorie content of food in high-fat diet induced obesity; conditions: 4.5 mg zinc aspartate intragastrically every third day; for BMI: week 10
Protocol: White non-pedigree rats with an initial weight of 195-205±10 g were used in the experiment. The animals were maintained in an accredited vivarium of the Academic and Research Center "Institute of Biology and Medicine" of Taras Shevchenko National University of Kyiv in accordance with the Standard rules on the arrangement, equipment and maintenance of experimental biological clinics (vivariums). The study was carried out in compliance with international standards and recommendations of the European Convention for the Protection of Vertebrate Animals used for Experimental and other Scientific Purposes (Strasbourg, 18/03/1986) and approved by the Bioethics Commission of the Academic and Research Center "Institute of Biology and Medicine".
Before the start of the experiment, animals were maintained on a standard diet of the vivarium. To induce obesity in experimental animals, they were fed high-fat diet which consisted of standard feed (60%), lard (10%), chicken eggs (10%), sucrose (9%), peanuts (5%), dry milk (5%) and sunflower oil (1%) (1%) (see X. H. Shen et al., Exp. Biol. and Med. 235: 47-51 (2010)). […] For the preparation of composition claimed standard Dulbecco's phosphate-buffered saline from (specified a manufacturer) (based on deuterium-depleted water Langway) as a diluent (liquid vehicle) was used.
Animals in all groups were weighed once a week after an overnight fast. The amount of feed to be consumed by the animals was determined daily. At the end of a 10-week period of the development of obesity models, 24 hours after the last administration of the zinc isotope solution, animals were removed from their cages and decapitated.
The body mass index (BMI) (the ratio of body weight (g) to the square of body length (cm^2)) was calculated at the end of the experiment.
Animals with an initial weight of 195-205±10 g maintained on the standard diet of the vivarium before performing obesity models were used in the experiments. To induce obesity in experimental animals, they were fed high-fat diet which consisted of standard feed (60%), lard (10%), chicken eggs (10%), sucrose (9%), peanuts (5%), dry milk (5%) and sunflower oil (1%), Shen X. et al., Experimental Biology and Medicine. - 2010. - ? […] The first 4 weeks of the experiment, all animals were maintained on a high-fat diet, after which they were randomly divided into two experimental groups: • animals in the first group (obesity) continued to eat their high-fat diet and had free access to water for the next 6 weeks of the experiment. • animals in the second group (obesity + solution of Zn-64 stable isotope in aspartate form) also followed their high-fat diet and had free access to water for the next 6 weeks of the experiment. But every third day and until the end of the experiment they were intragastrically administered a solution of Zn-64 stable isotope in aspartate form.
Animals in all groups were weighed once a week after an overnight fast. The amount of feed to be consumed by the animals was determined daily.

[7] = test system: pro- and anti-inflammatory cytokines; assay: Cytokine profile in adipose tissue in obesity model (immunoenzyme method); format: in vivo, rats; conditions: intragastrically every third day
Protocol: Adipose tissue was crushed using cold scissors then transferred to a homogenizer with a loose-fitting Teflon pestle. […] Primary homogenate thus obtained was centrifuged at 600 g for 15 minutes. The supernatant was carefully collected and re-centrifuged at 15,000 g for 15 minutes. The supernatant was then frozen and stored at -80°C until the experiments.
The antigen solution, previously diluted with 0.1 M NaHCO3 buffer, pH 9.6, to a concentration of 10 µg/ml, was incubated in the plate wells for 12 hours at 4°C. Unbound material was removed by washing the wells three times with TBS buffer, first with 0.05% Tween-20, then without Tween-20. Non-specific binding sites were blocked by adding a solution of 5% skim milk or a solution of 1% bovine serum albumin to the plate wells and incubating them for 60 minutes at 37°C. After incubation, the wells were washed three times with TBS, first with 0.05% Tween-20, then without Tween-20. Primary antibodies were diluted in TBS in accordance with the manufacturer's instructions and incubated with the antigen for 60 min at 37°C. After washing with TBS working buffer, first with the addition of 0.05% Tween-20, then without Tween-20, the conjugate of secondary antibodies was added to the wells and incubated for 60 min at 37°C. As with the primary antibodies, secondary antibodies were diluted in TBS in accordance with the manufacturer's instructions. After the washing procedure, phenyldiamine dihydrochloride as substrate in 0.05M phosphate-citrate buffer was added to each well, followed by the addition of 0.3% hydrogen peroxide. After 10 minutes, the reaction time needed for development, 2.5 n H2SO4 was added.
The absorbance at a wavelength of 492 nm was measured using a µQuant microplate spectrophotometer (BioTek Instruments).

lipid metabolism = assay: Serum triglycerides, cholesterol and free fatty acids in obesity model; format: in vivo, rats; conditions: high-fat diet, 2.25 mg/ml zinc aspartate intragastrically in 2 ml
Description: To this end, high-fat diet obesity was induced in experimental animals as described in Example 2.

superoxide dismutase = assay: Serum superoxide dismutase activity, obesity model; format: in vivo, rats; conditions: DIO+zinc: high-fat diet, intragastrically every third day
Protocol: To measure superoxide dismutase activity, a method based on the ability of this enzyme to inhibit auto-oxidation of adrenaline was used.
Serum aliquots were added to microplate wells containing 0.2M bicarbonate buffer, pH 10. The reaction was initiated by adding 0.1% adrenaline solution in each well. A relevant volume of buffer was added to the "blank" wells to which no test sample was added. The optical density was measured at a wavelength of 347 nm using a µQuant microplate spectrophotometer (BioTek Instruments) at the 4th and 8th minute after adrenaline was added to the wells. The enzyme activity was expressed in relative units/min/mg.

[8] = test system: tryptophan, serotonin, monoamine oxidase; assay: Serum tryptophan, serotonin and monoamine oxidase activity, obesity model; format: in vivo, rats; conditions: intragastrically every third day
Protocol: as §2
The samples were reprecipitated by centrifugation.
University. Medicine. - 2000. - 1, No. 494. - P. 40-43.

[9] = test system: central serotonergic system (brain); assay: Indicators of the central serotonergic system in brain homogenate, obesity model; format: in vivo, rats; conditions: intragastrically every third day
Description: as §3, §4, §5

[10] = test system: pro- and anti-inflammatory cytokines; assay: Serum cytokine profile in obesity model (immunoenzyme method); format: in vivo, rats; conditions: intragastrically every third day
Protocol: as §2

[11] = Body weight after intraperitoneal administration; format: in vivo; conditions: intact rats, 3750 µg of zinc per 1 kg, 7 injections every other day
Protocol: as §6

catalase = assay: Serum catalase activity, obesity model; format: in vivo, rats; conditions: DIO+zinc: high-fat diet, intragastrically every third day
Description: Korolyuk M.A. et al., Lab. Business. - 1988. - No. 1. - P. 44-67.

liver = assay: Morpho-functional analysis of liver tissue (hepatocyte morphometry, fibrosis) in obesity model; format: in vivo, rats; conditions: Van Gieson's staining
alkaline phosphatase = assay: Serum alkaline phosphatase activity in obesity model; format: in vivo; conditions: high-fat diet rats treated
Description: as §1
The alkaline phosphatase activity was expressed in relative units.

## CC(=O)[O-].CC(=O)[O-].[Zn+2] [Zn acetate, Zn(CH3COO)2, reference compound]
insulin
  serum insulin levels at day 7 after the withdrawal: drop in the insulin levels to the value of those of intact/control animals
  serum insulin levels on the first day after the drug withdrawal: significant increase
Glucose tolerance test
  glucose levels in the glucose tolerance test compared with the control group: also dropped, though not so strongly
Glucose tolerance test; individual animals, dose: 5 mg/kg in a volume of 2 ml, fast overnight, 5 mg/kg
  Glucose, 0 min (1 h after effector administration): 4.6 and 5.2 (2×) and 4.9 and 5.1
Glucose tolerance test; individual animals, dose: 5 mg/kg in a volume of 2 ml, glucose 3 g/kg body weight in 2 ml, 5 mg/kg
  Glucose, 60 min (1 h after glucose administration): 7.2 (2×) and 6.9 and 7.3 and 6.8
[1]
  accumulation of zinc in the kidney and liver tissues: significantly increased

## N[C@@H](CC(=O)[O-])C(=O)[O-].[Zn+2] [^64Zne, zinc aspartate]
[2]
  effect on albumin values: no effect
pancreas; rats fed a standard diet, hematoxylin & eosin
  morphology of exocrine cells of the pancreas: did not change
pancreas; rats having obesity
  cross-sectional surface area of the islets of Langerhans, increase compared with the obesity group: 43%
  cross-sectional surface area of the islets of Langerhans, lower than the control value: 29%
pancreas; rats that ate a standard diet
  cross-sectional surface area of the islets of Langerhans, decrease compared with the control group: 39%
[3]; C+zinc: standard diet
  Glucose levels: 4.7 ± 0.2 mmol/L
[3]; DIO+zinc: high-fat diet
  Glucose levels: 4.9 ± 0.2 mmol/L
insulin
  serum insulin levels at day 7 after the withdrawal: increased
  serum insulin levels on the first day after the drug withdrawal: slightly higher than in the group of intact animals
insulin; listed as zinc isotope
  serum insulin levels at day 7 after the withdrawal: significant increase
Islets of Langerhans
  area of islets of Langerhans compared to the control group and the zinc acetate group: significant increase
Glucose tolerance test; listed as zinc isotope
  glucose levels in the glucose tolerance test compared with the control group: drop in glucose concentration; also recorded: decrease in glucose levels
Glucose tolerance test; listed as zinc isotope ^64Zn
  glucose levels in the glucose tolerance test compared with the control group: significant decrease in glucose levels
[4]
  Aldehyde-dinitrophenyl-hydrazones: 0.253±0.012 nmol/mg protein
  Ketone-dinitrophenyl-hydrazones: 0.200±0.024 nmol/mg protein
[5]; C+zinc: standard diet
  Indoleamine dioxygenase activity: 2150 ± 231 µmol/mg protein
  Monoamine oxidase activity: 3.82 ±0.07 RU/mg protein
  Serotonin: 7.41 ± 0.54 µg/g
  Tryptophan: 154.7 ± 13.6 µg/g
  Tryptophan decarboxylase activity: 0.79 ± 0.22 RU/mg protein
  Tryptophan hydroxylase activity: 375 ± 61 RU/mg protein
[5]; DIO+zinc: high-fat diet
  Indoleamine dioxygenase activity: 1768 ± 274 µmol/mg protein
  Monoamine oxidase activity: 1.72 ±0.03 RU/mg protein
  Serotonin: 9.73 ± 0.82 µg/g
  Tryptophan: 89.4 ± 8.99 µg/g
  Tryptophan decarboxylase activity: 0.78 ± 0.19 RU/mg protein
  Tryptophan hydroxylase activity: 253 ± 58 RU/mg protein
[1]
  accumulation of zinc in the kidney and liver tissues: significantly increased
[6]; C+zinc: standard diet
  Amount of food consumed: 32 g/day
  Calorie content of food: 490 kJ/day
  Weight gain as of the end of the experiment: 59%
  BMI: 0.59 g/cm^2
[6]; DIO+zinc: high-fat diet
  Amount of food consumed: 29 g/day
  Calorie content of food: 823 kJ/day
  Weight gain as of the end of the experiment: 62%
  BMI: 0.65 g/cm^2
[7]; C+zinc: standard diet
  IFN-γ level: 5.0±0.8 RU/mg protein
  IL-1 level: 4.9±1.7 RU/mg protein
  IL-4 level: 5.0±0.4 RU/mg protein
  IL-6 level: 5.4±0.3 RU/mg protein
  IL-10 level: 4.9±0.2 RU/mg protein
  IL-12 level: 1.0±0.03 RU/mg protein
  TGF level: 5.1±0.6 RU/mg protein
[7]; DIO+zinc: high-fat diet
  IFN-γ level: 4.9±0.8 RU/mg protein
  IL-1 level: 5.8±1.8 RU/mg protein
  IL-4 level: 5.1±1.2 RU/mg protein
  IL-6 level: 6.1±0.7 RU/mg protein
  IL-10 level: 5.8±0.8 RU/mg protein
  IL-12 level: 1.99±0.01 RU/mg protein
  TGF level: 5.2±0.9 RU/mg protein
Lipid metabolism
  levels of triglycerides, cholesterol and free fatty acids in the serum: almost at the same level as in the control group
Superoxide dismutase
  Superoxide dismutase activity: 4.5±0.43 # RU/ min per mg protein
[8]; C+zinc: standard diet
  Monoamine oxylase activity: 2.52±0.03 RU/mg protein
  Serotonin: 10.16 ± 0.62 µg/g
  Tryptophan: 56.12 ± 7.58 µg/g
[8]; DIO+zinc: high-fat diet
  Monoamine oxylase activity: 3.11±0.08 RU/mg protein
  Serotonin: 6.33 ± 0.51 µg/g
  Tryptophan: 66.65 ± 9.62 µg/g
[9]; C+zinc: standard diet
  Indoleamine dioxygenase activity: 1178 ± 267 µmol/mg protein
  Monoamine oxidase activity: 0.91 ±0.06 RU/mg protein
  Serotonin: 25.51 ± 2.71 µg/g
  Tryptophan: 87.71 ± 3.41 µg/g
  Tryptophan decarboxylase activity: 1.63 ± 0.41 RU/mg protein
  Tryptophan hydroxylase activity: 291 ± 29 RU/mg protein
[9]; DIO+zinc: high-fat diet
  Indoleamine dioxygenase activity: 2007 ± 175 µmol/mg protein
  Monoamine oxidase activity: 0.99±0.08 RU/mg protein
  Serotonin: 20.1 ± 3.21 µg/g
  Tryptophan: 31.56 ± 2.14 µg/g
  Tryptophan decarboxylase activity: 1.86 ± 0.37 RU/mg protein
  Tryptophan hydroxylase activity: 286 ± 17 RU/mg protein
[10]; C+zinc: standard diet
  IFN-γ level: 4.6±0.6 RU/mg protein
  IL-1 level: 3.5±0.7 RU/mg protein
  IL-4 level: 4.6±0.8 RU/mg protein
  IL-6 level: 4.3±0.2 RU/mg protein
  IL-10 level: 4.1±0.5 RU/mg protein
  IL-12 level: 0.3±0.04 RU/mg protein
  TGF level: 4.1±0.4 RU/mg protein
[10]; DIO+zinc: high-fat diet
  IFN-γ level: 4.1±1.2 RU/mg protein
  IL-1 level: 4.2±0.4 RU/mg protein
  IL-4 level: 5.6±1.6 RU/mg protein
  IL-6 level: 5.1±0.4 RU/mg protein
  IL-10 level: 6.8±1.1 # RU/mg protein
  IL-12 level: 2.4±0.06 RU/mg protein
  TGF level: 5.7±0.3 # RU/mg protein
[10]; DIO+zinc: high-fat diet, listed as Zn-64 stable isotope in aspartate form
  TGF level: 5.7±0.3 RU/mg protein
[11]
  body weight of rats: significant increase
catalase
  Catalase activity: 0.48±0.02 µmol H2O2/min per mg protein
liver; obesity group treated
  area of collagen fiber deposits, increased by a factor versus the control group: 6
liver; rats eating a standard diet
  increase in the area of deposition of collagen fibers: 2 fold
Alkaline phosphatase
  alkaline phosphatase activity: higher than both in the group of diet-induced obesity models and in the control group
